Test results: PMC4488483, “Reversible Oxidation of a Conserved Methionine in the Nuclear Export Sequence Determines Subcellular Distribution and Activity of the Fungal Nitrate Regulator NirA” (PLoS Genetics, 2015)

What was measured:
FmoB [1] = biological target: T1, FmoB (Aspergillus nidulans, UniProt Q5B5S0); experiment: UV-visible absorbance spectrum of FAD saturated enzyme; format: binding; details: purified recombinant FmoB
T1 construct: gene ANIA_04110; complete fmoB gene from cDNA, expressed in E. coli, HIS-Select and size exclusion purified, ~60 kDa on SDS-PAGE, FAD saturated
T1 sequence (Q5B5S0 1-492): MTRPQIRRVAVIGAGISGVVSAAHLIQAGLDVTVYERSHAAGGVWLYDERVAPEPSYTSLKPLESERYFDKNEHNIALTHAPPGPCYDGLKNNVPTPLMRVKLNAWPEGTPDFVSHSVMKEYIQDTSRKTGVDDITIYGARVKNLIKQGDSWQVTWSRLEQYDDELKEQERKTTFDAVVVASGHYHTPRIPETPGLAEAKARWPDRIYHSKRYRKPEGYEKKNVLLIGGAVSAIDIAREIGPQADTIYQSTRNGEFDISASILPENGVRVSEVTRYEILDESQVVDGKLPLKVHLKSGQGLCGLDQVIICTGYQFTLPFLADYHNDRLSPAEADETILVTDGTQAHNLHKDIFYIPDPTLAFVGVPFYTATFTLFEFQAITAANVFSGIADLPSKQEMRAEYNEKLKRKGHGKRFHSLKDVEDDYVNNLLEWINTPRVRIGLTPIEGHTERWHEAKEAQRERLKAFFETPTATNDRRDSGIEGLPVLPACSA

FmoB [2] = biological target: T1, FmoB; experiment: NADPH consumption, absorbance at […] nm; format: biochemical; details: 2 uM FmoB, 200 uM NADPH, 2 mM substrate
FmoB [3] = biological target: T1, FmoB; experiment: HPLC of L-methionine sulfoxide formed; format: biochemical; details: NADPH-dependent; up to 5 mM methionine; low rate

Cc1cc2nc3c(=O)[nH]c(=O)nc-3n(C[C@H](O)[C@H](O)[C@H](O)COP(=O)(O)OP(=O)(O)OC[C@H]3O[C@@H](n4cnc5c(N)ncnc54)[C@H](O)[C@@H]3O)c2cc1C [FAD]
UV-visible absorbance spectrum of FAD saturated enzyme (FmoB [1]): An UV-visible absorbance spectra of FAD saturated FmoB is shown as inset

N[C@@H](CS)C(=O)O [cysteine]
NADPH consumption, absorbance at 340 nm (FmoB [2]): free cysteine, dithiothreitol (DTT) or β-mercaptoethanol were favourable substrates for FmoB

CSCC[C@H](N)C(=O)O [L-methionine]
HPLC of L-methionine sulfoxide formed (FmoB [3]): it is able to convert free methionine to the sulfoxide form
